Laboratory results reported in US12187705B2, “Heteroaryl-triazole and heteroaryl-tetrazole compounds as pesticides” (Bayer Aktiengesellschaft, priority 2018, dated 2025).

Assays:
Type in all cases: in vivo
[1] = tested on: Ctenocephalides felis; test: Ctenocephalides felis oral test; conditions: Ctenocephalides felis, in Bos taurus, po, 48 h
Description: Ctenocephalides felis—Oral Test
(§1) Solvent: dimethyl sulfoxide
To produce a suitable preparation of active compound, 10 mg of active compound are dissolved in 0.5 ml solvent, and the concentrate is diluted with cattle blood to the desired concentration.
Approximately 20 adult unfed cat fleas (Ctenocephalides felis) are placed in flea chambers. The blood chamber, sealed with parafilm on the bottom, are filled with cattle blood supplied with compound solution and placed on the gauze covered top of the flea chamber, so that the fleas are able to suck the blood. The blood chamber is heated to 37° C. whereas the flea chamber is kept at room temperature.
After 2 days mortality in % is determined. 100% means all the fleas have been killed; 0% means none of the fleas have been killed.

[2] = tested on: Myzus persicae; test: Myzus persicae oral test; conditions: 120 h
Description: To produce a suitable preparation of active compound, 1 part by weight of active compound is mixed with the stated amount of solvent, and the concentrate is diluted with water to the desired concentration.
50 μl compound solution is filled in microtiter plates and 150 μl IPL41 insect medium (33%+15% sugar) is added to obtain a total volume of 200 μl per well. Afterwards the plates are sealed with parafilm through which a mixed population of the green peach aphid (Myzus persicae) can suck on the compound preparation.
After 5 days mortality in % is determined. 100% means all aphids have been killed and 0% means none of the aphids have been killed.

[3] = tested on: Diabrotica balteata; test: Diabrotica balteata spray test; conditions: 160 μg/well, wheat seeds, after 7 days; for pest or weed control at 160 µg/disc, 160 µg/well: Diabrotica balteata, 168 h, read-out: efficacy (seedlings grown)
Description: Diabrotica balteata—Spray Test
(§2) To produce a suitable preparation of active compound, 1 part by weight of active compound is mixed with the stated amount of solvent, and the concentrate is diluted with water, containing an emulsifier concentration of 1000 ppm, to the desired concentration. Further test concentrations are prepared by dilution with emulsifier containing water.
Soaked wheat seeds (Triticum aestivum) are placed in a multiple well plate filled with agar and some water and are incubated for 1 day to germinate (5 seeds per well). The germinated wheat seeds are sprayed with a test solution containing the desired concentration of the active ingredient. Afterwards each unit is infected with 10-20 larvae of the banded cucumber beetle (Diabrotica balteata).
After 7 days efficacy in % is determined. 100% means all the seedlings have grown up like in the untreated, uninfected control; 0% means none of the seedlings have grown.

[4] = tested on: Nezara viridula; test: Nezara viridula spray test; conditions: in Hordeum vulgare, 96 h
Description: Nezara viridula—Spray Test
as §2
Barley plants (Hordeum vulgare) infested with larvae of the southern green stink bug (Nezara viridula) are sprayed with a test solution containing the desired concentration of the active ingredient.
After 4 days mortality in % is determined. 100% means all the stink bugs have been killed; 0% means none of the stink bugs have been killed.

[5] = tested on: Ctenocephalides felis; test: Ctenocephalides felis in-vitro contact test adult cat flea; conditions: 5 μg/cm^2 (=500 g/ha), after 48 hours
Description: Ctenocephalides felis—In-Vitro Contact Test Adult Cat Flea
9 mg compound is solved in 1 ml acetone and diluted with acetone to the desired concentration. 250 μl of the test solution is filled in 25 ml glass test tubes and homogeneously distributed on the inner walls by rotation and tilting on a shaking device (2 h at 30 rpm). With a compound concentration of 900 ppm, an inner surface of 44.7 cm^2 and a homogeneous distribution, a dose of 5 μg/cm^2 is achieved.
After the solvent has evaporated, each test tube is filled with 5-10 adult cat fleas (Ctenocephalides felis), closed with a perforated lid and incubated in a lying position at room temperature and relative humidity. After 48 hours efficacy is determined. The fleas are patted on the ground of the tubes and are incubated on a heating plate at 45-50° C. for at most 5 minutes. Immotile or uncoordinated moving fleas, which are not able to escape the heat by climbing upwards, are marked as dead or moribund.
An efficacy of 100% means all fleas are dead or moribund; 0% means no fleas are dead or moribund.

[6] = tested on: Boophilus microplus; test: Boophilus microplus injection test; conditions: 20 μg/animal, egg deposition after 7 days; for pest or weed control at 0.02 mg: Rhipicephalus microplus, 168 h, read-out: efficacy (infertile eggs)
Description: Boophilus microplus—Injection Test
as §1
To produce a suitable preparation of active compound, 10 mg of active compound are dissolved in 0.5 ml solvent, and the concentrate is diluted with solvent to the desired concentration.
Five adult engorged female ticks (Boophilus microplus) are injected with 1 μl compound solution into the abdomen. The ticks are transferred into replica plates and incubated in a climate chamber.
After 7 days egg deposition of fertile eggs is monitored. Eggs where fertility is not visible are stored in a climate chamber till hatching after about 42 days. An efficacy of 100% means all eggs are infertile; 0% means all eggs are fertile.

[7] = tested on: Aedes aegypti strain MONHEIM; test: Aedes aegypti test (AEDSAE surface treatment & contact assay); conditions: surface concentration 20 mg/m^2, 30 minutes exposure, 24 hours after contact, read-out: efficacy (mortality)
Description: Aedes aegypti Test (AEDSAE Surface Treatment & Contact Assay)
(§3) Solvent: Aceton+2000 ppm rapeseed oil methyl ester (RME)
(§4) In order to produce a sufficient, active ingredient containing solution it is necessary to solve the test-compound in the solvent-mix (Acetone at 2 mg/ml/RME 2000 ppm). This solution is pipetted onto a glazed tile and after evaporation of the Acetone, adult mosquitoes of the species Aedes aegypti strain MONHEIM are placed onto the dried surface. The exposure time is 30 minutes.
(§5) Mortality in percent (%) is determined 24 hours after contact to the treated surface. 100% mortality means that all test-insects are dead, whereas 0% means that not a single insect died.

[8] = tested on: Spodoptera frugiperda; test: Spodoptera frugiperda spray test; conditions: in Zea mays, 168 h
Description: Spodoptera frugiperda—Spray Test
as §2, with “solvents” for “solvent,”, “and” for “and the concentrate”
Maize (Zea mays) leaf sections are sprayed with a preparation of the active ingredient of the desired concentration. Once dry, the leaf sections are infested with fall armyworm larvae (Spodoptera frugiperda).
After 7 days mortality in % is determined. 100% means all caterpillars have been killed and 0% means none of the caterpillars have been killed.

[9] = tested on: Culex quinquefasciatus strain P00; test: Culex quinquefasciatus test (CULXFA surface treatment & contact assay); conditions: surface concentration 20 mg/m^2, 30 minutes exposure, 24 hours after contact, read-out: efficacy (mortality)
Description: Culex quinquefasciatus Test (CULXFA Surface Treatment & Contact Assay)
as §3
as §4, with “Culex quinquefasciatus” for “Aedes aegypti”, “P00” for “MONHEIM”
as §5

In the case of `CC(c1ncnn1-c1ncccn1)N(CC1CC1)C(=O)c1cc(Cl)cc(C(=O)NC2CC2)c1` (stereo not drawn) [Example I-007], the mortality at 100 ppm [1] is reported as 100%, the mortality at 4 ppm [2] is reported as 100% and the mortality at 20 ppm [2] is reported as 100%. The pest or weed control at 160 µg/disc, 160 µg/well [3] was 100%, the mortality at 500 g/ha [4] was 100% and the pest or weed control at 5 µg/cm2, 5 µg/cm2 ([5]; Ctenocephalides felis, read-out: efficacy (fleas dead or moribund)) was 100%.
For `CC(c1ncnn1-c1ncccn1)N(CC1CC1)C(=O)Cc1cc(Cl)cc(C(F)(F)F)c1` (stereo not drawn) [Example I-011], the pest or weed control at 160 µg/disc, 160 µg/well [3] was 100%.
`CC(c1ncnn1-c1ncccn1)N(CC1CC1)C(=O)c1cc(Cl)ccc1Cl` (stereo not drawn) [Example I-014] was tested, and the pest or weed control at 160 µg/disc, 160 µg/well [3] was 100%.
With `CC(NC(=O)c1cc(Cl)cc(-n2cccn2)c1)c1ncnn1-c1ncccn1` (stereo not drawn) [Example I-048] the mortality at 100 ppm [1] was 100%, the pest or weed control at 0.02 mg [6] was 100% and the mortality at 20 mg/m2 [7] was 90 to 100%. It also gave a mortality at 4 ppm [2] of 100% and a pest or weed control at 160 µg/disc, 160 µg/well [3] of 100%.
Compound `C[C@H](NC(=O)c1cc(C(F)(F)F)nn1-c1ccc(F)cc1)c1ncnn1-c1ncccn1` [Example I-052, 1-(4-fluorophenyl)-N-{(1S)-1-[1-(pyrimidin-2-yl)-1H-1,2,4-triazol-5-yl]ethyl}-3-(trifluoromethyl)-1H-pyrazole-5-carboxamide] has a mortality at 100 ppm [1] of 100% and a pest or weed control at 0.02 mg [6] of 100%.
With `CC(NC(=O)c1cc(Cl)cc(C2CC2)c1)c1ncnn1-c1ccc(C#N)cn1` (stereo not drawn) [Example I-054] the “efficacy (seedlings grown)” value [3] was 100% and the “efficacy (fleas dead or moribund)” value [5] was 80%.
Compound `COC[C@H](NC(=O)c1cc(Cl)cc(S(C)(=O)=O)c1)c1ncnn1-c1ccc(C#N)cn1` [Example I-058, 3-chloro-N-{(1R)-1-[1-(5-cyanopyridin-2-yl)-1H-1,2,4-triazol-5-yl]-2-methoxyethyl}-5-(methylsulfonyl)benzamide] has a mortality at 100 ppm [1] of 100%.
For `C[C@@H](NC(=O)c1cc(Cl)cc(SC(C)(C)C)c1)c1ncnn1-c1ncccn1` [Example I-060], the mortality at 100 ppm [1] was 100%, the pest or weed control at 160 µg/disc, 160 µg/well [3] was 100% and the mortality at 500 g/ha [4] was 100%.
Work on `C[C@H](NC(=O)c1cc(Cl)cc(S(C)(=O)=O)c1)c1ncnn1-c1ccc(SC(F)(F)F)cn1` [Example I-064] yielded a pest or weed control at 160 µg/disc, 160 µg/well [3] of 100% and a mortality at 500 g/ha [8] of 100%.
`CC(NC(=O)c1cc(Cl)cc(S(=O)(=O)C(F)(F)F)c1)c1ncnn1-c1ncc(Cl)cn1` (stereo not drawn) [Example I-069] was tested, and the “efficacy (infertile eggs)” value [6] was 100%, the “efficacy (seedlings grown)” value [3] was 100% and the “efficacy (fleas dead or moribund)” value [5] was 100%.
With `CC(NC(=O)c1cc(Cl)cc(S(=O)(=O)C(F)(F)F)c1)c1ncnn1-c1ccc(C(F)(F)F)cn1` (stereo not drawn) [Example I-072] the “efficacy (infertile eggs)” value [6] was 100% and the “efficacy (seedlings grown)” value [3] was 100%.
For `CC(NC(=O)c1cc(Cl)cc(S(=O)(=O)C(F)(F)F)c1)c1ncnn1-c1ccc(Cl)cn1` (stereo not drawn) [Example I-073], the “efficacy (infertile eggs)” value [6] was 100%, the “efficacy (seedlings grown)” value [3] was 100% and the “efficacy (fleas dead or moribund)” value [5] was 90%.
With `CC(NC(=O)c1cc(Cl)cc(S(=O)(=O)C(F)(F)F)c1)c1ncnn1-c1cc(C#N)ccn1` (stereo not drawn) [Example I-075] the “efficacy (infertile eggs)” value [6] was 100%, the “efficacy (seedlings grown)” value [3] was 100% and the “efficacy (fleas dead or moribund)” value [5] was 90%.
Work on `C[C@@H](NC(=O)c1cc(Cl)cc(S(=O)(=O)C(F)(F)F)c1)c1ncnn1-c1ccnc(Cl)c1` [Example I-076] yielded a mortality at 100 ppm [1] of 100% and a pest or weed control at 0.02 mg [6] of 100%.
In the case of `CC(NC(=O)c1cc(Cl)cc(S(=O)(=O)C(F)(F)F)c1)c1ncnn1-c1ncc(Cl)cc1F` (stereo not drawn) [Example I-079], the “efficacy (seedlings grown)” value [3] is reported as 100%.
In the case of `CC(NC(=O)c1cc(Cl)cc(S(=O)(=O)C(C)(C)C)c1)c1ncnn1-c1ncccn1` (stereo not drawn) [Example I-080], the “efficacy (infertile eggs)” value [6] is reported as 80%.
`C[C@H](NC(=O)c1cc(Cl)cc(NS(=O)(=O)c2ccccc2)c1)c1ncnn1-c1ncccn1` [Example I-086, 3-chloro-5-[(phenylsulfonyl)amino]-N-{(1S)-1-[1-(pyrimidin-2-yl)-1H-1,2,4-triazol-5-yl]ethyl}benzamide] was tested, and the mortality at 4 ppm [2] was 90%.
With `C[C@@H](NC(=O)c1cc(Cl)cc(NC(=O)C2CC2)c1)c1ncnn1-c1ncccn1` [Example I-088] the mortality at 100 ppm [1] was 100%.
With `CC(NC(=O)c1cc(Cl)cc(S(C)(=O)=O)c1)c1nc(C(F)(F)F)nn1-c1ccc(Cl)cn1` (stereo not drawn) [Example I-090] the “efficacy (seedlings grown)” value [3] was 100%.
With `CC(NC(=O)c1cc(Cl)cc(S(=O)(=O)C(F)(F)F)c1)c1ncnn1-c1ncc(C(F)(F)F)cn1` (stereo not drawn) [Example I-097] the “efficacy (seedlings grown)” value [3] was 100%.
For `CC(NC(=O)c1csc(Cl)c1)c1ncnn1-c1ncc(C(F)(F)F)cn1` (stereo not drawn) [Example I-098], the “efficacy (seedlings grown)” value [3] was 100% and the “efficacy (fleas dead or moribund)” value [5] was 90%.
In the case of `CC(NC(=O)c1cc(C(F)(F)F)cc(Cl)c1F)c1ncnn1-c1ncccn1` (stereo not drawn) [Example I-104], the “efficacy (seedlings grown)” value [3] is reported as 100%.
`C[C@@H](NC(=O)c1cc(C2CC2)on1)c1ncnn1-c1ncccn1` [Example I-107] was tested, and the pest or weed control at 160 µg/disc, 160 µg/well [3] was 100%, the mortality at 20 mg/m2 [9] was 80 to 100% and the mortality at 500 g/ha [4] was 100%.
In the case of `Cc1cnc(-n2ncnc2[C@@H](C)NC(=O)c2csc(Cl)c2)nc1` [Example I-109], the mortality at 500 g/ha [4] is reported as 90%.
In the case of `CC(NC(=O)c1cccc(-c2ccc(OC(F)(F)F)cc2)c1)c1ncnn1-c1ncccn1` (stereo not drawn) [Example I-115], the pest or weed control at 160 µg/disc, 160 µg/well [3] is reported as 100%.
With `C[C@H](NC(=O)c1cc(Cl)cc(S(C)(=O)=O)c1)c1ncnn1-c1cnc(C#N)cn1` [Example I-117] the “efficacy (seedlings grown)” value [3] was 100%.
For `C[C@H](NC(=O)c1cc(Cl)cc(S(=O)(=O)C(F)(F)F)c1)c1ncnn1-c1ccc(F)cn1` [Example I-118], the “efficacy (seedlings grown)” value [3] was 100%.
`C[C@@H](c1ncnn1-c1ccc(C#N)cn1)N(CC1CC1)C(=O)c1cc(F)cc(C2CC2)c1` [Example I-121] was tested, and the “efficacy (seedlings grown)” value [3] was 100%.
With `C[C@H](NC(=O)c1cc(Br)cc(C(C)(C)C)c1)c1ncnn1-c1ncccn1` [Example I-125] the “efficacy (seedlings grown)” value [3] was 100%.
